The results in this text go back to ChEMBL document CHEMBL1201862, “PubChem BioAssay data set” (2004).

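Compound exposure: 48 hours, 5 concentrations, 96-well plates. The concentration for 50% growth inhibition is given as GI50.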 Active and inactive are the calls of the source. Cut-off read from the data, not from the text of the source: active = GI50 up to about 1.1 µM and inactive = higher.

Among the test systems are CCRF-CEM; HCC 2998; HCT-15; M14; MDA-N; NCI-H460; NCI/ADR-RES; OVCAR-3; PC-3; SK-OV-3; SN12C; SNB-75; TK-10; U-251; EKVX; HL-60; SK-MEL-2; 786-0; BT-549.
Common to all, as to experiment: inhibition of tumour cell growth, NCI panel, 48 h

Regarding `CCOC(=O)C(COS(C)(=O)=O)(COS(C)(=O)=O)C(=O)OCC`, the GI50 in the test on CCRF-CEM is > 100 µM (inactive); with HCC 2998 it was > 100 µM (inactive); in the test with HCT-15, over 100 µM; in the test with M14 it was > 100 µM (inactive); with MDA-N it was > 100 µM (inactive); with NCI-H460 it was > 100 µM (inactive). Also, the GI50 with NCI/ADR-RES, in the test on OVCAR-3, in the test with PC-3, in the test on SK-OV-3, in the test with SN12C and with SNB-75 was > 100 µM (inactive) each time. The GI50 with TK-10 and with U-251 was > 100 µM (inactive) in each case.
Regarding `Nc1nc(=O)[nH]c2c1cnn2C1CCCCO1` (stereo unspecified), the GI50 in the test on CCRF-CEM was > 100 µM (inactive); with EKVX, > 100 µM (inactive); with HCC 2998 it was > 100 µM (inactive); with HCT-15, over 100 µM; in the test with HL-60 it was 38.4 µM (inactive); in the test with M14, > 100 µM (inactive). The GI50 in the test with NCI-H460, with SK-MEL-2, in the test with SN12C, in the test on SNB-75, in the test with TK-10 and in the test on U-251 was > 100 µM (inactive) each time.
On to `O=[N+]([O-])c1cc(Cl)c(Cl)cc1[N+](=O)[O-]`, for which the GI50 in the test with 786-0 is 2.8 µM (inactive); in the test on CCRF-CEM, 5.94 µM (inactive); in the test with EKVX it was 2.83 µM (inactive); in the test on HCT-15, 2.85 µM; in the test on HL-60 it was 1.9 µM (inactive); with M14 it was 3.51 µM (inactive). Moreover, the GI50 was 3.24 µM (inactive) in the test on NCI-H460; 4.18 µM (inactive) in the test with NCI/ADR-RES; 1.48 µM (inactive) in the test with OVCAR-3; 1.74 µM (inactive) in the test with PC-3; 2.44 µM (inactive) in the test on SK-MEL-2; 1.91 µM (inactive) in the test with SN12C. The GI50 with SNB-75 is 3.6 µM (inactive); in the test with TK-10, 3.55 µM (inactive); in the test with U-251 it was 2 µM (inactive).
In the case of `O=C(/C=C/c1ccc2c(c1)OCO2)CC(=O)/C=C/c1ccc2c(c1)OCO2`, the GI50 was 49.8 µM (inactive) in the test with 786-0; 35.6 µM (inactive) in the test with CCRF-CEM; 64 µM (inactive) with EKVX; > 100 µM (inactive) with HCC 2998; over 100 µM with HCT-15; 41.7 µM (inactive) with HL-60. In addition, the GI50 in the test with M14 was > 100 µM (inactive); with MDA-N, 40 µM (inactive); in the test on NCI-H460 it was 82.8 µM (inactive); in the test with NCI/ADR-RES, 69.3 µM (inactive); in the test with OVCAR-3 it was 27.1 µM (inactive); in the test on PC-3, 86.3 µM (inactive). Moreover, the GI50 with SK-MEL-2 is > 100 µM (inactive); in the test on SK-OV-3, > 100 µM (inactive); in the test on SN12C it was > 100 µM (inactive); with SNB-75 it was > 100 µM (inactive); with TK-10, > 100 µM (inactive); in the test with U-251 it was 91.4 µM (inactive).
As for `Cc1c2c(n(CCc3ccc(Cl)cc3)c1C)NN=C(C#N)S2(=O)=O`, the GI50 is > 100 µM (inactive) with 786-0; > 100 µM (inactive) in the test with EKVX; > 100 µM (inactive) with HCC 2998; over 100 µM with HCT-15; 91.4 µM (inactive) in the test with M14; 64.7 µM (inactive) in the test on MDA-N. In addition, the GI50 is > 100 µM (inactive) in the test on NCI-H460; 61.9 µM (inactive) in the test with NCI/ADR-RES; > 100 µM (inactive) with OVCAR-3; > 100 µM (inactive) in the test with PC-3; > 100 µM (inactive) with SK-MEL-2; > 100 µM (inactive) in the test with SK-OV-3. The GI50 with SN12C, in the test with SNB-75, with TK-10 and in the test with U-251 was > 100 µM (inactive) throughout.
`C=C=CC(NC(=O)c1ccccc1)(C(=O)O)C(F)(F)F` (stereo unspecified): the GI50 in the test with CCRF-CEM was > 100 µM (inactive); in the test on EKVX it was > 100 µM (inactive); with HCC 2998 it was > 100 µM (inactive); in the test with HCT-15, over 100 µM; with HL-60, > 100 µM (inactive); in the test on M14, > 100 µM (inactive). In addition, the GI50 in the test on NCI-H460, in the test with SK-MEL-2, with SN12C, in the test on SNB-75, in the test with TK-10 and in the test with U-251 was > 100 µM (inactive) each time.
As for `NC(=O)c1nc[nH]c1/N=N/SCC(N)C(=O)O` (stereo unspecified), the GI50 with 786-0 is 19.4 µM (inactive); in the test with BT-549, > 90.8 µM (inactive); in the test on CCRF-CEM it was 2 µM (inactive); with EKVX, > 75.7 µM (inactive); with HCC 2998 it was 4.06 µM (inactive); in the test on HCT-15, 43.2 µM. For the same compound, the GI50 is 1.26 µM (inactive) in the test with HL-60; 2.81 µM (inactive) with M14; 12.7 µM (inactive) in the test with NCI-H460; 6.58 µM (inactive) with NCI/ADR-RES; 19.1 µM (inactive) with OVCAR-3; 15.7 µM (inactive) in the test with PC-3. In addition, the GI50 with SK-MEL-2 was 3.33 µM (inactive); in the test with SK-OV-3, 2.88 µM (inactive); with SN12C it was 6.73 µM (inactive); in the test on SNB-75, 24.3 µM (inactive); with TK-10 it was 5.32 µM (inactive); in the test with U-251, > 80.7 µM (inactive).
For `COc1ccc(CCNC(=O)CCc2ccccc2CO)cc1OC`, the GI50 in the test with 786-0 was > 100 µM (inactive); in the test on BT-549, > 100 µM (inactive); in the test on CCRF-CEM, > 100 µM (inactive); with EKVX it was > 100 µM (inactive); with HCC 2998, > 100 µM (inactive); in the test with HCT-15, over 100 µM. The GI50 in the test on HL-60, in the test on M14, in the test on NCI-H460, with NCI/ADR-RES, in the test on OVCAR-3 and in the test on PC-3 was > 100 µM (inactive) throughout. Moreover, the GI50 in the test on SK-MEL-2, in the test with SK-OV-3, in the test with SN12C, in the test with SNB-75, in the test on TK-10 and in the test on U-251 was > 100 µM (inactive) throughout.
`COc1cc(/C=C/c2cc(=O)cc(/C=C/c3ccc(O)c(OC)c3)o2)ccc1O`: the GI50 is 23.3 µM (inactive) in the test with 786-0; 99.8 µM (inactive) with BT-549; 0.324 µM (active) with CCRF-CEM; > 70 µM (inactive) in the test with EKVX; 13.6 µM (inactive) in the test on HCC 2998; 60.4 µM in the test on HCT-15. The GI50 in the test on HL-60 is 15.7 µM (inactive); in the test with M14 it was > 100 µM (inactive); in the test with NCI-H460, 44 µM (inactive); in the test with NCI/ADR-RES it was 98.4 µM (inactive); with OVCAR-3, 76.4 µM (inactive); in the test with PC-3, > 85.9 µM (inactive). Moreover, the GI50 was 41.2 µM (inactive) with SK-MEL-2; 76.4 µM (inactive) in the test on SK-OV-3; > 60.3 µM (inactive) in the test with SN12C; 29.9 µM (inactive) in the test with SNB-75; > 75.5 µM (inactive) in the test on TK-10; 25.5 µM (inactive) in the test on U-251.
`Cc1cc(NS(=O)(=O)c2ccc(/N=[N+](\[O-])c3ccc(S(=O)(=O)Nc4cc(C)on4)cc3)cc2)no1`: the GI50 in the test on 786-0 is > 100 µM (inactive); with BT-549, > 100 µM (inactive); in the test with CCRF-CEM, > 100 µM (inactive); with EKVX it was > 100 µM (inactive); with HCT-15, over 100 µM; in the test with HL-60, > 100 µM (inactive). For the same compound, the GI50 with M14, in the test on NCI/ADR-RES, with OVCAR-3, in the test on PC-3, in the test with SK-MEL-2 and with SK-OV-3 was > 100 µM (inactive) in each case. Further, the GI50 in the test with SN12C, in the test on SNB-75, in the test on TK-10 and in the test on U-251 was > 100 µM (inactive) throughout.
Take `Cc1c(/C=N/N(C)C)oc2c1cc(O)c1ncccc12`: the GI50 is 6.28 µM (inactive) in the test on 786-0; 1.27 µM (inactive) in the test on CCRF-CEM; 2.11 µM (inactive) in the test with EKVX; 14 µM (inactive) in the test with HCC 2998; 2.31 µM in the test on HCT-15; 2.13 µM (inactive) in the test with HL-60. Besides, the GI50 was 3.25 µM (inactive) with M14; 4.5 µM (inactive) with NCI-H460; 2.66 µM (inactive) in the test on OVCAR-3; 12.6 µM (inactive) in the test on SK-MEL-2; 6.87 µM (inactive) in the test on SK-OV-3; 3.96 µM (inactive) in the test on SN12C. Also, the values for the GI50 in the test on SNB-75, in the test with TK-10 and with U-251 were 6.92 µM (inactive), 28.8 µM (inactive) and 13.1 µM (inactive), respectively.
Take `N#CC(C#N)=C1/C(=C/C=C/C=C/C=C/c2ccc(N3CCCCC3)s2)S(=O)(=O)c2ccccc21`: the GI50 in the test on 786-0 is 93.1 µM (inactive); in the test with BT-549, > 100 µM (inactive); in the test with CCRF-CEM it was 71.6 µM (inactive); with EKVX it was > 100 µM (inactive); in the test on HCC 2998, > 100 µM (inactive); in the test on HCT-15 it was over 100 µM. In addition, the GI50 in the test with HL-60, in the test on M14, with NCI-H460, in the test with NCI/ADR-RES, in the test with OVCAR-3 and with PC-3 was > 100 µM (inactive) each time. In addition, the GI50 in the test with SK-MEL-2 was > 100 µM (inactive); with SK-OV-3, > 100 µM (inactive); in the test on SN12C, > 100 µM (inactive); with SNB-75, > 100 µM (inactive); with TK-10, 81.3 µM (inactive); with U-251, 46.7 µM (inactive).
In the case of `CCc1nc(N)nc(N)c1-c1ccc(Cl)c([N+]#N)c1`, the GI50 is 48.2 µM (inactive) in the test with 786-0; > 100 µM (inactive) in the test with BT-549; > 100 µM (inactive) with EKVX; 28.8 µM with HCT-15; 40.8 µM (inactive) in the test with HL-60; 65.5 µM (inactive) in the test on M14. Also, the GI50 with NCI-H460 was 37.8 µM (inactive); with NCI/ADR-RES, 49.8 µM (inactive); in the test on OVCAR-3, 44.5 µM (inactive); with PC-3 it was 61.7 µM (inactive); in the test on SK-MEL-2, > 100 µM (inactive); in the test on SK-OV-3 it was > 100 µM (inactive). Moreover, the GI50 is 50.6 µM (inactive) in the test on SN12C, > 100 µM (inactive) with SNB-75, > 100 µM (inactive) in the test with TK-10 and 64.3 µM (inactive) in the test on U-251.
